The values below come from ChEMBL document CHEMBL4715763, “A simple, one pot synthesis of furo[3,2-c]chromenes and evaluation of antimicrobial activity” (2016).

Holding throughout (type): functional
Assay [1] relates to Escherichia coli. Kind of assay: Antimicrobial activity against Escherichia coli MTCC 739 assessed as inhibition zone measured after 24 hrs incubation by well diffusion method. (In agar diffusion tests the substance spreads into inoculated agar from a disc or well.)
Assay [2] concerns Staphylococcus aureus. As to the kind of experiment: Antimicrobial activity against Staphylococcus aureus MTCC 96 assessed as inhibition zone measured after 24 hrs incubation by well diffusion method.
The next assay relates to Pseudomonas aeruginosa. Kind of assay: Antimicrobial activity against Pseudomonas aeruginosa MTCC 2453 assessed as inhibition zone measured after 24 hrs incubation by well diffusion method.
For assay [3], the system named is Raoultella planticola. As to the kind of experiment: Antimicrobial activity against Klebsiella planticola MTCC 530 assessed as inhibition zone measured after 24 hrs incubation by well diffusion method.
The test system of assay [4] is Bacillus subtilis. As to the kind of experiment: Antimicrobial activity against Bacillus subtilis MTCC 121 assessed as inhibition zone measured after 24 hrs incubation by well diffusion method.
In assay [5] the test system is Staphylococcus aureus. As to the kind of experiment: Antimicrobial activity against Staphylococcus aureus MLS-16 MTCC 2940 assessed as inhibition zone measured after 24 hrs incubation by well diffusion method.
Another assay deals with Candida albicans. As to the kind of experiment: Antimicrobial activity against Candida albicans MTCC 3017 assessed as inhibition zone measured after 24 hrs incubation by well diffusion method.
Assay [6] relates to Micrococcus luteus. Kind of assay: Antimicrobial activity against Micrococcus luteus MTCC 2470 assessed as inhibition zone measured after 24 hrs incubation by well diffusion method.
Assay [7] has as its system Micrococcus luteus. Kind of assay: Bactericidal activity against Micrococcus luteus MTCC 2470 assessed as bacterial killing after 24 hrs incubation by NCCLS protocol-based broth microdilution method. In general terms: Broth dilution looks for growth in wells or tubes with falling amounts of substance.
The subject of assay [8] is Bacillus subtilis. Kind of assay: Bactericidal activity against Bacillus subtilis MTCC 121 assessed as bacterial killing after 24 hrs incubation by NCCLS protocol-based broth microdilution method.
Assay [9] deals with Escherichia coli. Kind of assay: Bactericidal activity against Escherichia coli MTCC 739 assessed as bacterial killing after 24 hrs incubation by NCCLS protocol-based broth microdilution method.
The test system of assay [10] is Raoultella planticola. Kind of assay: Bactericidal activity against Klebsiella planticola MTCC 530 assessed as bacterial killing after 24 hrs incubation by NCCLS protocol-based broth microdilution method.

Structures are written as SMILES. ≈ marks a conversion by molar mass, not a printed value. Calls of active or inactive are those of the source.

With `COC(=O)C1(C#N)Oc2c(c(=O)oc3ccccc23)C1c1ccc(Cl)cc1` (stereo unspecified), the minimum inhibitory concentration (MIC) with Escherichia coli [1] is 62.5 µg/mL (≈ 164 µM); with Staphylococcus aureus [2], greater than 250 µg/mL; with Pseudomonas aeruginosa, greater than 250 µg/mL; in the assay on Raoultella planticola [3] it was greater than 250 µg/mL; in the assay with Bacillus subtilis [4], greater than 250 µg/mL; in the assay on Staphylococcus aureus [5] it was greater than 250 µg/mL. Further, the minimum inhibitory concentration (MIC) in the assay on Candida albicans and in the assay with Micrococcus luteus [6] was greater than 250 µg/mL throughout.

Take `COC(=O)C1(C#N)Oc2c(c(=O)oc3ccccc23)C1c1ccc(Br)cc1` (stereo unspecified): the minimal inhibitory concentration (MIC) with Escherichia coli [1] is 12.5 µg/mL (≈ 29.3 µM); in the assay with Staphylococcus aureus [2], greater than 250 µg/mL; in the assay on Pseudomonas aeruginosa, greater than 250 µg/mL; in the assay with Raoultella planticola [3], greater than 250 µg/mL; in the assay with Bacillus subtilis [4], greater than 250 µg/mL; in the assay with Staphylococcus aureus [5], greater than 250 µg/mL. Moreover, the MIC in the assay on Candida albicans and with Micrococcus luteus [6] was greater than 250 µg/mL throughout.

In the case of `COC(=O)C1(C#N)Oc2c(c(=O)oc3ccccc23)C1c1ccc(Cl)cc1Cl` (stereo unspecified), the MIC in the assay with Escherichia coli [1], with Staphylococcus aureus [2], with Pseudomonas aeruginosa, with Raoultella planticola [3], with Bacillus subtilis [4] and in the assay on Staphylococcus aureus [5] was greater than 250 µg/mL in each case. Moreover, the MIC in the assay on Candida albicans and in the assay on Micrococcus luteus [6] was greater than 250 µg/mL in each case.

As for `COC(=O)C1(C#N)Oc2c(c(=O)oc3ccccc23)C1c1cc(OC)c(OC)c(OC)c1` (stereo unspecified), the MIC was greater than 250 µg/mL with Escherichia coli [1]; 62.5 µg/mL (≈ 143 µM) in the assay with Staphylococcus aureus [2]; greater than 250 µg/mL in the assay with Pseudomonas aeruginosa; greater than 250 µg/mL with Raoultella planticola [3]; greater than 250 µg/mL with Bacillus subtilis [4]; greater than 250 µg/mL with Staphylococcus aureus [5]. Also, the minimum inhibitory concentration (MIC) in the assay with Candida albicans and in the assay on Micrococcus luteus [6] was greater than 250 µg/mL in each case.

With `COC(=O)C1(C#N)Oc2c(c(=O)oc3ccccc23)C1c1ccc([N+](=O)[O-])cc1` (stereo unspecified), the minimum inhibitory concentration (MIC) with Escherichia coli [1], in the assay with Staphylococcus aureus [2], with Pseudomonas aeruginosa, with Raoultella planticola [3], with Bacillus subtilis [4] and with Staphylococcus aureus [5] was greater than 250 µg/mL each time. The MIC in the assay with Candida albicans and in the assay with Micrococcus luteus [6] was greater than 250 µg/mL in each case.

Consider `COC(=O)C1(C#N)Oc2c(c(=O)oc3ccccc23)C1c1ccc(C#N)cc1` (stereo unspecified), for which the MIC with Escherichia coli [1], in the assay with Staphylococcus aureus [2], with Pseudomonas aeruginosa, in the assay with Raoultella planticola [3], in the assay with Bacillus subtilis [4] and with Staphylococcus aureus [5] was greater than 250 µg/mL each time. Besides, the MIC in the assay on Candida albicans and in the assay on Micrococcus luteus [6] was greater than 250 µg/mL throughout.

Turning to `COC(=O)C1(C#N)Oc2c(c(=O)oc3ccccc23)C1c1ccc(C)cc1` (stereo unspecified), the MIC in the assay on Escherichia coli [1], with Staphylococcus aureus [2], in the assay on Pseudomonas aeruginosa, with Raoultella planticola [3], in the assay on Bacillus subtilis [4] and with Staphylococcus aureus [5] was greater than 250 µg/mL throughout. The minimum inhibitory concentration (MIC) is greater than 250 µg/mL in the assay on Candida albicans and 125 µg/mL (≈ 346 µM) with Micrococcus luteus [6].

Regarding `Clc1ccc(COC(Cn2ccnc2)c2ccc(Cl)cc2Cl)c(Cl)c1` (stereo unspecified) [MICONAZOLE], the MIC result in the assay on Escherichia coli [1], with Staphylococcus aureus [2], in the assay on Pseudomonas aeruginosa, in the assay with Raoultella planticola [3], in the assay with Bacillus subtilis [4] and in the assay on Staphylococcus aureus [5] was “inactive” throughout. Further, the MIC entry with Micrococcus luteus [6] is “inactive”. For the same compound, in the assay with Candida albicans, the MIC is 7.8 µg/mL (≈ 18.7 µM).

With `CCOC(=O)C1(C#N)Oc2c(c(=O)oc3ccccc23)C1c1ccccc1` (stereo unspecified), the minimum inhibitory concentration (MIC) in the assay on Escherichia coli [1], in the assay with Staphylococcus aureus [2], in the assay on Pseudomonas aeruginosa, in the assay with Raoultella planticola [3], in the assay on Bacillus subtilis [4] and with Staphylococcus aureus [5] was greater than 250 µg/mL each time. Also, the MIC in the assay with Candida albicans and in the assay with Micrococcus luteus [6] was greater than 250 µg/mL each time.

`O=C(O)c1cn(C2CC2)c2cc(N3CCNCC3)c(F)cc2c1=O` [CIPROFLOXACIN]: the MBC in the assay with Micrococcus luteus [7], in the assay on Bacillus subtilis [8], in the assay with Escherichia coli [9] and with Raoultella planticola [10] was 1.17 µg/mL (≈ 3.53 µM) each time. For the same compound, the minimal inhibitory concentration (MIC) in the assay on Escherichia coli [1], in the assay on Staphylococcus aureus [2], with Pseudomonas aeruginosa, with Raoultella planticola [3], in the assay with Bacillus subtilis [4] and in the assay with Staphylococcus aureus [5] was 0.9 µg/mL (≈ 2.72 µM) in each case. Moreover, the minimum inhibitory concentration (MIC) in the assay on Micrococcus luteus [6] was 0.9 µg/mL (≈ 2.72 µM).

Take `COC(=O)C1(C#N)Oc2c(c(=O)oc3ccccc23)C1c1ccc(F)cc1` (stereo unspecified): the MBC in the assay with Micrococcus luteus [7], with Bacillus subtilis [8], with Escherichia coli [9] and in the assay with Raoultella planticola [10] was 62.5 µg/mL (≈ 171 µM) each time. In addition, the MIC in the assay with Escherichia coli [1] was 15.6 µg/mL (≈ 42.7 µM); in the assay with Staphylococcus aureus [2], 62.5 µg/mL (≈ 171 µM); in the assay on Pseudomonas aeruginosa, greater than 250 µg/mL; in the assay with Raoultella planticola [3], 7.8 µg/mL (≈ 21.4 µM); in the assay on Bacillus subtilis [4], 7.8 µg/mL (≈ 21.4 µM); in the assay with Staphylococcus aureus [5], 62.5 µg/mL (≈ 171 µM). For the same compound, the minimal inhibitory concentration (MIC) with Candida albicans came out at 62.5 µg/mL (≈ 171 µM); in the assay with Micrococcus luteus [6], 7.8 µg/mL (≈ 21.4 µM).

For `COC(=O)C1(C#N)Oc2c(c(=O)oc3ccccc23)C1c1ccccc1` (stereo unspecified), the minimal inhibitory concentration (MIC) in the assay on Escherichia coli [1] was greater than 250 µg/mL; with Staphylococcus aureus [2], greater than 250 µg/mL; with Pseudomonas aeruginosa, greater than 250 µg/mL; in the assay on Raoultella planticola [3], greater than 250 µg/mL; with Bacillus subtilis [4], 62.5 µg/mL (≈ 180 µM); in the assay with Staphylococcus aureus [5], greater than 250 µg/mL. Also, the minimal inhibitory concentration (MIC) in the assay on Candida albicans and in the assay with Micrococcus luteus [6] was greater than 250 µg/mL in each case.

With `COC(=O)C1(C#N)Oc2c(c(=O)oc3ccc(C)cc23)C1c1ccccc1` (stereo unspecified), the MIC with Escherichia coli [1], in the assay on Staphylococcus aureus [2], in the assay on Pseudomonas aeruginosa, in the assay on Raoultella planticola [3], in the assay on Bacillus subtilis [4] and in the assay on Staphylococcus aureus [5] was greater than 250 µg/mL throughout. Moreover, the MIC in the assay on Candida albicans and in the assay on Micrococcus luteus [6] was greater than 250 µg/mL in each case.

Turning to `CCOC(=O)C1(C#N)Oc2c(c(=O)oc3ccc(C)cc23)C1c1ccccc1` (stereo unspecified), the MIC is greater than 250 µg/mL in the assay with Escherichia coli [1]; greater than 250 µg/mL with Staphylococcus aureus [2]; greater than 250 µg/mL in the assay with Pseudomonas aeruginosa; 250 µg/mL (≈ 666 µM) in the assay with Raoultella planticola [3]; greater than 250 µg/mL in the assay on Bacillus subtilis [4]; greater than 250 µg/mL in the assay with Staphylococcus aureus [5]. Further, the MIC with Candida albicans and in the assay on Micrococcus luteus [6] was greater than 250 µg/mL throughout.

Consider `CC(C)OC(=O)C1(C#N)Oc2c(c(=O)oc3ccccc23)C1c1ccccc1` (stereo unspecified), for which the MBC in the assay on Micrococcus luteus [7] and with Raoultella planticola [10] was 62.5 µg/mL (≈ 166 µM) each time. The MIC was greater than 250 µg/mL in the assay on Escherichia coli [1]; 125 µg/mL (≈ 333 µM) with Staphylococcus aureus [2]; greater than 250 µg/mL with Pseudomonas aeruginosa; 15.6 µg/mL (≈ 41.6 µM) in the assay on Raoultella planticola [3]; 250 µg/mL (≈ 666 µM) in the assay with Bacillus subtilis [4]; 125 µg/mL (≈ 333 µM) in the assay on Staphylococcus aureus [5]. Besides, the MIC is greater than 250 µg/mL with Candida albicans and 15.6 µg/mL (≈ 41.6 µM) in the assay on Micrococcus luteus [6]. The MBC result in the assay on Bacillus subtilis [8] and with Escherichia coli [9] was “inactive” each time.

Take `COC(=O)C1(C#N)Oc2c(c(=O)oc3ccccc23)C1c1ccc(C(F)(F)F)cc1` (stereo unspecified): the MIC with Escherichia coli [1], with Staphylococcus aureus [2], in the assay with Pseudomonas aeruginosa, in the assay with Raoultella planticola [3], in the assay on Bacillus subtilis [4] and with Staphylococcus aureus [5] was greater than 250 µg/mL in each case. The MIC in the assay on Candida albicans and in the assay on Micrococcus luteus [6] was greater than 250 µg/mL each time.

With `COC(=O)C1(C#N)Oc2c(c(=O)oc3ccccc23)C1c1ccc(O)cc1` (stereo unspecified), the MIC with Escherichia coli [1], in the assay with Staphylococcus aureus [2], in the assay with Pseudomonas aeruginosa, with Raoultella planticola [3], in the assay with Bacillus subtilis [4] and with Staphylococcus aureus [5] was greater than 250 µg/mL each time. The MIC with Candida albicans and in the assay with Micrococcus luteus [6] was greater than 250 µg/mL each time.

`CCOC(=O)C1(C#N)Oc2c(c(=O)oc3ccccc23)C1c1cccc2ccccc12` (stereo unspecified): the MIC with Escherichia coli [1], in the assay on Staphylococcus aureus [2], with Pseudomonas aeruginosa, with Raoultella planticola [3], in the assay on Bacillus subtilis [4] and in the assay with Staphylococcus aureus [5] was greater than 250 µg/mL each time. Further, the MIC with Candida albicans and in the assay on Micrococcus luteus [6] was greater than 250 µg/mL each time.

Consider `CCOC(=O)C1(C#N)Oc2c(c(=O)oc3ccccc23)C1c1ccc([N+](=O)[O-])cc1` (stereo unspecified), for which the MIC with Escherichia coli [1], with Staphylococcus aureus [2], with Pseudomonas aeruginosa, in the assay on Raoultella planticola [3], in the assay with Bacillus subtilis [4] and in the assay on Staphylococcus aureus [5] was greater than 250 µg/mL in each case. The minimum inhibitory concentration (MIC) in the assay with Candida albicans and in the assay on Micrococcus luteus [6] was greater than 250 µg/mL in each case.

For the compound `CCOC(=O)C1(C#N)Oc2c(c(=O)oc3ccccc23)C1c1ccc(C(F)(F)F)cc1` (stereo unspecified), the MIC with Escherichia coli [1] was greater than 250 µg/mL; in the assay with Staphylococcus aureus [2], greater than 250 µg/mL; in the assay on Pseudomonas aeruginosa, greater than 250 µg/mL; with Raoultella planticola [3], 250 µg/mL (≈ 582 µM); in the assay with Bacillus subtilis [4], 250 µg/mL (≈ 582 µM); in the assay with Staphylococcus aureus [5] it was greater than 250 µg/mL. Also, the MIC with Candida albicans and in the assay with Micrococcus luteus [6] was greater than 250 µg/mL in each case.

A word on the MIC: it is the least concentration at which growth counts as inhibited. The term MBC denotes the smallest concentration meeting the test's criterion for killing.
